The series has as its system rodent lifetime carcinogenesis bioassay, tumor incidence TD50. The experiment in a line: carcinogenic potency in animals, long-term in vivo studies, CPDB compilation (AID 1745844).

This is an account of results in PubChem BioAssay AID1745844 (Carcinogenic Potency Database (CPDB), 2022).

Active and inactive are the calls of the source. How the calls were made is not given here.

`CCN(CC)c1ccc(N=Nc2cc[n+]([O-])cc2)cc1`: the carcinogen call (rat, strain Sprague-Dawley, males, in feed, site: liver, lesion: one or several types, types not named, dosed 52 weeks, study length 52 weeks) is “positive”.

`CCCCCCCCCCCCCCCC(=O)OC/C=C(C)/C=C/C=C(C)/C=C/C1=C(C)CCCC1(C)C`: under “mouse, strain ICR/Jcl, males, in drinking water, site: forestomach, lesion: one or several types, types not named, dosed 66 weeks, study length 66 weeks”, the carcinogen call was “negative (inactive)”.

For `Clc1ccc(-c2ccc(Cl)c(Cl)c2Cl)c(Cl)c1Cl`, the TD50 runs as follows: (rat, strain Sherman COBS, females, in feed, site: liver, lesion: hepatocellular carcinoma, dosed 89 weeks, study length 95 weeks) 18.3 mg/kg/day; (rat, strain Sherman COBS, females, in feed, site: liver, lesion: neoplastic nodule, dosed 89 weeks, study length 95 weeks) 1.76 mg/kg/day; (rat, strain Sherman COBS, females, in feed, site: liver, lesion: several types, types named in the paper, dosed 89 weeks, study length 95 weeks) 1.04 mg/kg/day; (rat, strain Sprague-Dawley, females, in feed, site: liver, lesion: cholangioma, dosed 104 weeks, study length 104 weeks) 98.2 mg/kg/day; (rat, strain Sprague-Dawley, females, in feed, site: liver, lesion: hepatocellular adenoma, dosed 104 weeks, study length 104 weeks) 6.43 mg/kg/day; (rat, strain Sprague-Dawley, females, in feed, site: liver, lesion: hepatocellular carcinoma, dosed 104 weeks, study length 104 weeks) 41.4 mg/kg/day. In addition, the TD50 runs as follows: (rat, strain Sprague-Dawley, females, in feed, site: liver, lesion: several types, types named in the paper, dosed 104 weeks, study length 104 weeks) 5.51 mg/kg/day; (rat, strain Sprague-Dawley, males, in feed, site: liver, lesion: hepatocellular adenoma, dosed 104 weeks, study length 104 weeks) 24.8 mg/kg/day; (rat, strain Sprague-Dawley, males, in feed, site: liver, lesion: hepatocellular carcinoma, dosed 104 weeks, study length 104 weeks) 121 mg/kg/day; (rat, strain Sprague-Dawley, males, in feed, site: liver, lesion: several types, types named in the paper, dosed 104 weeks, study length 104 weeks) 20 mg/kg/day; (rat, strain Sprague-Dawley, males, in feed, site: thyroid gland, lesion: follicular-cell adenoma, dosed 104 weeks, study length 104 weeks) 11.4 mg/kg/day; (rat, strain Sprague-Dawley, males, in feed, site: thyroid gland, lesion: follicular-cell carcinoma, dosed 104 weeks, study length 104 weeks) 232 mg/kg/day. In addition, the TD50 (rat, strain Sprague-Dawley, males, in feed, site: thyroid gland, lesion: several types, types named in the paper, dosed 104 weeks, study length 104 weeks) is 10.3 mg/kg/day and the TD50 (rat, strain Wistar, males, in feed, site: liver, lesion: hepatocellular carcinoma, dosed 116 weeks, study length 116 weeks) was 5.39 mg/kg/day.

Turning to `CCc1nc(N)nc(N)c1-c1ccc(Cl)cc1`, the TD50 reads like this: (mouse, strain B6C3F1, females, in feed, site: any site (literature study), lesion: several types, types named in the paper, dosed 78 weeks, study length 104 weeks) 315 mg/kg/day (inactive); (mouse, strain B6C3F1, females, in feed, site: lung, lesion: alveolar/bronchiolar adenoma + alveolar/bronchiolar carcinoma, dosed 78 weeks, study length 104 weeks) 405 mg/kg/day; (mouse, strain B6C3F1, males, in feed, site: any site (literature study), lesion: several types, types named in the paper, dosed 78 weeks, study length 104 weeks) 419 mg/kg/day; (rat, strain Fischer 344, females, in feed, site: any site (literature study), lesion: several types, types named in the paper, dosed 78 weeks, study length 104 weeks) 27.8 mg/kg/day (inactive). In addition, the carcinogen call (rat, strain Fischer 344, males, in feed, site: any site (literature study), lesion: several types, types named in the paper, dosed 78 weeks, study length 104 weeks) is “negative (inactive)”.

Turning to `O=NN(CCO)CC(O)CO` (stereo not given), the TD50 is 52.7 mg/kg/day (hamster, strain Syrian Golden, females, by gavage, site: trachea, lesion: adenoma, dosed 50 weeks, study length 104 weeks); 11.5 mg/kg/day (rat, strain Fischer 344, females, in drinking water, site: liver, lesion: hepatocellular carcinoma, dosed 75 weeks, study length 120 weeks); 8.69 mg/kg/day (rat, strain Fischer 344, females, in drinking water, site: liver, lesion: neoplastic nodule, dosed 75 weeks, study length 120 weeks); 5.98 mg/kg/day (rat, strain Fischer 344, females, in drinking water, site: liver, lesion: several types, types named in the paper, dosed 75 weeks, study length 120 weeks).

`O=S1(=O)CC=CC1`: where the note is “mouse, strain B6C3F1, females, by gavage, site: any site (literature study), lesion: several types, types named in the paper, dosed 78 weeks, study length 90 weeks”, the carcinogen call was “negative (inactive)”. The TD50 was 1940 mg/kg/day (mouse, strain B6C3F1, females, by gavage, site: lung, lesion: alveolar/bronchiolar adenoma + alveolar/bronchiolar carcinoma, dosed 78 weeks, study length 90 weeks); 631 mg/kg/day (inactive) (mouse, strain B6C3F1, males, by gavage, site: any site (literature study), lesion: several types, types named in the paper, dosed 78 weeks, study length 90 weeks); 415 mg/kg/day (mouse, strain B6C3F1, males, by gavage, site: liver, lesion: hepatocellular adenoma + hepatocellular carcinoma + neoplastic nodule, dosed 78 weeks, study length 90 weeks); 882 mg/kg/day (mouse, strain B6C3F1, males, by gavage, site: lung, lesion: alveolar/bronchiolar adenoma + alveolar/bronchiolar carcinoma, dosed 78 weeks, study length 90 weeks); 5370 mg/kg/day (inactive) (rat, strain Osborne-Mendel, females, by gavage, site: any site (literature study), lesion: several types, types named in the paper, dosed 78 weeks, study length 111 weeks); 30.8 mg/kg/day (inactive) (rat, strain Osborne-Mendel, males, by gavage, site: any site (literature study), lesion: several types, types named in the paper, dosed 69 weeks, study length 111 weeks).

With `NC(=S)Nc1cccc2ccccc12`, the carcinogen call runs as follows: (mouse, strain B6AKF1, females, oral dosing, site: any site (literature study), lesion: several types, types named in the paper, dosed 76 weeks, study length 76 weeks) “negative (inactive)”; (mouse, strain B6AKF1, females, oral dosing, site: liver, lesion: hepatoma, dosed 76 weeks, study length 76 weeks) “negative (inactive)”; (mouse, strain B6AKF1, females, oral dosing, site: lung, lesion: adenoma, dosed 76 weeks, study length 76 weeks) “negative (inactive)”; (mouse, strain B6AKF1, males, oral dosing, site: any site (literature study), lesion: several types, types named in the paper, dosed 76 weeks, study length 76 weeks) “negative (inactive)”; (mouse, strain B6AKF1, males, oral dosing, site: liver, lesion: hepatoma, dosed 76 weeks, study length 76 weeks) “negative (inactive)”; (mouse, strain B6AKF1, males, oral dosing, site: lung, lesion: adenoma, dosed 76 weeks, study length 76 weeks) “negative (inactive)”. Moreover, the carcinogen call (mouse, strain B6C3F1, females, oral dosing, site: liver, lesion: hepatoma, dosed 76 weeks, study length 76 weeks) was “negative (inactive)”; the carcinogen call (mouse, strain B6C3F1, females, oral dosing, site: lung, lesion: several types, types named in the paper, dosed 76 weeks, study length 76 weeks) was “negative (inactive)”; the carcinogen call (mouse, strain B6C3F1, males, oral dosing, site: liver, lesion: hepatoma, dosed 76 weeks, study length 76 weeks) is “negative (inactive)”. The TD50 reads like this: (mouse, strain B6C3F1, females, oral dosing, site: any site (literature study), lesion: several types, types named in the paper, dosed 76 weeks, study length 76 weeks) 5.34 mg/kg/day (inactive); (mouse, strain B6C3F1, males, oral dosing, site: any site (literature study), lesion: several types, types named in the paper, dosed 76 weeks, study length 76 weeks) 0.7 mg/kg/day (inactive); (mouse, strain B6C3F1, males, oral dosing, site: lung, lesion: adenoma, dosed 76 weeks, study length 76 weeks) 1.27 mg/kg/day (inactive).

`ClCc1ccccc1`: the TD50 was 445 mg/kg/day (mouse, strain B6C3F1, females, by gavage, site: forestomach, lesion: carcinoma, dosed 104 weeks, study length 107 weeks); 81 mg/kg/day (mouse, strain B6C3F1, females, by gavage, site: forestomach, lesion: several types, types named in the paper, dosed 104 weeks, study length 107 weeks); 337 mg/kg/day (mouse, strain B6C3F1, females, by gavage, site: lung, lesion: several types, types named in the paper, dosed 104 weeks, study length 107 weeks); 454 mg/kg/day (mouse, strain B6C3F1, males, by gavage, site: all sites, lesion: all vascular tumors, dosed 104 weeks, study length 107 weeks); 221 mg/kg/day (mouse, strain B6C3F1, males, by gavage, site: forestomach, lesion: carcinoma, dosed 104 weeks, study length 107 weeks); 49.6 mg/kg/day (mouse, strain B6C3F1, males, by gavage, site: forestomach, lesion: several types, types named in the paper, dosed 104 weeks, study length 107 weeks). For the same compound, the TD50 by setting is: (mouse, strain B6C3F1, males, by gavage, site: liver, lesion: several types, types named in the paper, dosed 104 weeks, study length 107 weeks) 225 mg/kg/day; (rat, strain Fischer 344, females, by gavage, site: liver, lesion: neoplastic nodule, dosed 104 weeks, study length 107 weeks) 330 mg/kg/day; (rat, strain Fischer 344, females, by gavage, site: thyroid gland, lesion: several types, types named in the paper, dosed 104 weeks, study length 107 weeks) 40.6 mg/kg/day.

As to `Clc1nc(Cl)nc(Nc2ccccc2Cl)n1`, the TD50 by setting is: (mouse, strain B6C3F1, females, in feed, site: any site (literature study), lesion: several types, types named in the paper, dosed 103 weeks, study length 107 weeks) 99.2 mg/kg/day (inactive); (mouse, strain B6C3F1, females, in feed, site: liver, lesion: hepatocellular adenoma + hepatocellular carcinoma + neoplastic nodule, dosed 103 weeks, study length 107 weeks) 2550 mg/kg/day; (mouse, strain B6C3F1, females, in feed, site: lung, lesion: alveolar/bronchiolar adenoma + alveolar/bronchiolar carcinoma, dosed 103 weeks, study length 107 weeks) 1690 mg/kg/day; (rat, strain Fischer 344, females, in feed, site: liver, lesion: hepatocellular adenoma + hepatocellular carcinoma + neoplastic nodule, dosed 103 weeks, study length 104 weeks) 1050 mg/kg/day; (rat, strain Fischer 344, males, in feed, site: any site (literature study), lesion: several types, types named in the paper, dosed 103 weeks, study length 104 weeks) 246 mg/kg/day (inactive). The carcinogen call was “negative (inactive)” (mouse, strain B6C3F1, males, in feed, site: any site (literature study), lesion: several types, types named in the paper, dosed 103 weeks, study length 107 weeks) and “negative (inactive)” (rat, strain Fischer 344, females, in feed, site: any site (literature study), lesion: several types, types named in the paper, dosed 103 weeks, study length 104 weeks).

What is called TD50 is the 50% point of the dose-response relation for the toxic effect studied.
